Source: PubChem BioAssay (NCI)
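Protocol summary: plate cells (96-well), add compound at 5 concentrations, incubate 48 h, interpolate endpoints linearly. TGI denotes the concentration required for complete inhibition of growth.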

Experiments:
Assay in all cases: NCI anticancer screen, dose series, 48 h
[1] = tested on: NCI-H226 lung
[2] = tested on: MDA-MB-435
[3] = tested on: T-47D breast
[4] = tested on: ACHN renal
[5] = tested on: HCT-15 colon
[6] = tested on: SNB-19 CNS
[7] = tested on: DU-145 prostate
[8] = tested on: HL-60(TB) leukemia
[9] = tested on: SK-MEL-5 melanoma
[10] = tested on: CAKI-1 renal
[11] = tested on: SK-MEL-28 melanoma
[12] = tested on: UACC-62 melanoma
[13] = tested on: LOX IMVI melanoma
[14] = tested on: RPMI-8226 leukemia
[15] = tested on: K-562 leukemia
[16] = tested on: SF-539 CNS
[17] = tested on: COLO 205 colon
[18] = tested on: A549 NSCLC
[19] = tested on: MDA-N
[20] = tested on: CCRF-CEM leukemia
[21] = tested on: SK-MEL-2 melanoma
[22] = tested on: OVCAR-5 ovarian
[23] = tested on: MALME-3M melanoma
[24] = tested on: MOLT-4 leukemia
[25] = tested on: MDA-MB-231 breast
[26] = tested on: OVCAR-3 ovarian
[27] = tested on: KM12 colon
[28] = tested on: HCC-2998 colon
[29] = tested on: NCI/ADR-RES ovarian
[30] = tested on: OVCAR-8 ovarian
[31] = tested on: OVCAR-4 ovarian
[32] = tested on: NCI-H23 lung
[33] = tested on: RXF 393 renal
[34] = tested on: BT-549 breast
[35] = tested on: HOP-92 NSCLC
[36] = tested on: SF-295 CNS
[37] = tested on: UACC-257 melanoma
[38] = tested on: TK-10 renal
[39] = tested on: MCF7 breast
[40] = tested on: HS 578T breast
[41] = tested on: SF-268 CNS
[42] = tested on: UO-31 renal
[43] = tested on: SW-620 colon
[44] = tested on: M14 melanoma
[45] = tested on: U251 CNS
[46] = tested on: SK-OV-3 ovarian
[47] = tested on: EKVX NSCLC
[48] = tested on: 786-0 renal
[49] = tested on: SNB-75 CNS
[50] = tested on: NCI-H460 lung
[51] = tested on: SR leukemia
[52] = tested on: HT29 colon
[53] = tested on: HCT-116 colon
[54] = tested on: A498 renal
[55] = tested on: IGROV1 ovarian
[56] = tested on: PC-3 prostate
[57] = tested on: DMS 114 small cell lung
[58] = tested on: HOP-18 NSCLC
[59] = tested on: NCI-H522 lung
[60] = tested on: SN12C renal
[61] = tested on: M19-MEL melanoma
[62] = tested on: HOP-62 NSCLC
[63] = tested on: XF 498 CNS
[64] = tested on: LXFL 529 NSCLC
[65] = tested on: DLD-1 colon
[66] = tested on: KM20L2 colon
[67] = tested on: DMS 273 small cell lung

Measured: TGI

Cc1ccc(/C(O)=C/C(=O)C(=O)NN=C(c2ccccc2)c2ccccc2)cc1
> 100 µM: [1] | [2] | [3] | [4] | [5] | [6] | [7] | [8] | [9] | [10] | [11] | [12] | [13] | [14] | [15] | [16] | [17] | [18] | [19] | [20] | [21] | [22] | [23] | [24] | [25] | [26] | [27] | [28] | [29] | [30] | [31] | [32] | [33] | [34] | [35] | [36] | [37] | [38] | [39] | [40] | [41] | [42] | [43] | [44] | [45] | [46] | [47] | [48] | [49] | [50] | [51] | [52] | [53] | [54] | [55] | [56]

CCOC(=O)C(=O)Nc1cc(Cl)ccc1Cl
> 100 µM: [1] | [57] | [58] | [4] | [59] | [5] | [60] | [6] | [8] | [9] | [10] | [11] | [12] | [61] | [14] | [62] | [15] | [16] | [17] | [18] | [63] | [20] | [21] | [22] | [23] | [64] | [24] | [26] | [27] | [28] | [30] | [31] | [32] | [35] | [36] | [37] | [38] | [41] | [42] | [43] | [44] | [65] | [66] | [45] | [46] | [47] | [48] | [49] | [50] | [51] | [52] | [67] | [53] | [54] | [55]
